Measurements published in the supplement of paper PMC10307832.

What was measured:
Assay in all cases: relative viability (nuclei count vs DMSO), 5 days (fraction); higher = more cells survive
COR-L23 = system: COR-L23
Summary of the method: (§1)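 Lung cancer cell lines were pin-tool dosed in 1536-well plates on the day after seeding, with either a lone drug or a fixed anchor-drug dose plus five library-drug doses (not always all listed) in √10 steps. Nuclei were counted on 4× images after 5 days. Relative viability is the ratio of treated-well to vehicle-well nuclei counts, with each value a median of duplicate plates.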

ChaGo-K-1 = system: ChaGo-K-1
Summary of the method: as §1

EMC-BAC-2 = system: EMC-BAC-2
Summary of the method: as §1

EPLC-272H = system: EPLC-272H
Summary of the method: as §1

H3255 = system: H3255
Summary of the method: as §1

HCC-44 = system: HCC-44
Summary of the method: as §1

HCC-827 = system: HCC-827
Summary of the method: as §1

LCLC-103H = system: LCLC-103H
Summary of the method: as §1

LU99A = system: LU99A
Summary of the method: as §1

NCI-H1395 = system: NCI-H1395
Summary of the method: as §1

NCI-H1651 = system: NCI-H1651
Summary of the method: as §1

NCI-H1793 = system: NCI-H1793
Summary of the method: as §1

NCI-H1944 = system: NCI-H1944
Summary of the method: as §1

NCI-H2023 = system: NCI-H2023
Summary of the method: as §1

NCI-H2085 = system: NCI-H2085
Summary of the method: as §1

NCI-H2087 = system: NCI-H2087
Summary of the method: as §1

NCI-H2405 = system: NCI-H2405
Summary of the method: as §1

NCI-H520 = system: NCI-H520
Summary of the method: as §1

NCI-H650 = system: NCI-H650
Summary of the method: as §1

NCI-H838 = system: NCI-H838
Summary of the method: as §1

SK-MES-1 = system: SK-MES-1
Summary of the method: as §1

`COc1cc2nccc(Oc3ccc(NC(=O)Nc4cc(C)on4)c(Cl)c3)c2cc1OC` [Tivozanib] + O=C(CCCCCCC(=O)Nc1ccccc1)NO [Vorinostat] (partner 1 µM) gave a relative viability (COR-L23; first compound 0.005 µM) of 0.444, a relative viability (COR-L23; first compound 0.01581 µM) of 0.454 and a relative viability (COR-L23; first compound 0.05 µM) of 0.607. It also gave a relative viability (COR-L23; first compound 0.1581 µM) of 0.33, a relative viability (COR-L23; first compound 0.5 µM) of 0.311 and a relative viability (ChaGo-K-1; first compound 0.005 µM) of 0.692. The relative viability (ChaGo-K-1; first compound 0.01581 µM) was 0.727, the relative viability (ChaGo-K-1; first compound 0.05 µM) was 0.773 and the relative viability (ChaGo-K-1; first compound 0.1581 µM) was 0.756. For the same molecule, the relative viability (ChaGo-K-1; first compound 0.5 µM) was 0.63, the relative viability (EMC-BAC-2; first compound 0.005 µM) was 0.281 and the relative viability (EMC-BAC-2; first compound 0.01581 µM) was 0.548. The relative viability (EMC-BAC-2; first compound 0.05 µM) was 0.5, the relative viability (EMC-BAC-2; first compound 0.1581 µM) was 0.345 and the relative viability (EMC-BAC-2; first compound 0.5 µM) was 0.201. For the same molecule, the relative viability (EPLC-272H; first compound 0.005 µM) was 0.452, the relative viability (EPLC-272H; first compound 0.01581 µM) was 0.617 and the relative viability (EPLC-272H; first compound 0.05 µM) was 0.385. For the same molecule, the relative viability (EPLC-272H; first compound 0.1581 µM) was 0.435, the relative viability (EPLC-272H; first compound 0.5 µM) was 0.281 and the relative viability (H3255; first compound 0.005 µM) was 0.633. For the same molecule, the relative viability (H3255; first compound 0.01581 µM) was 0.794, the relative viability (H3255; first compound 0.05 µM) was 0.885 and the relative viability (H3255; first compound 0.1581 µM) was 0.888. It also gave a relative viability (H3255; first compound 0.5 µM) of 0.611, a relative viability (HCC-44; first compound 0.005 µM) of 1.03 and a relative viability (HCC-44; first compound 0.01581 µM) of 1.09. The relative viability (HCC-44; first compound 0.05 µM) was 1.1, the relative viability (HCC-44; first compound 0.1581 µM) was 1.17 and the relative viability (HCC-44; first compound 0.5 µM) was 1.02. The relative viability (HCC-827; first compound 0.005 µM) was 0.69, the relative viability (HCC-827; first compound 0.01581 µM) was 0.851 and the relative viability (HCC-827; first compound 0.05 µM) was 0.879. It also gave a relative viability (HCC-827; first compound 0.1581 µM) of 0.854, a relative viability (HCC-827; first compound 0.5 µM) of 0.864 and a relative viability (LCLC-103H; first compound 0.005 µM) of 0.668. The relative viability (LCLC-103H; first compound 0.01581 µM) was 0.809, the relative viability (LCLC-103H; first compound 0.05 µM) was 0.86 and the relative viability (LCLC-103H; first compound 0.1581 µM) was 0.824. For the same molecule, the relative viability (LCLC-103H; first compound 0.5 µM) was 0.656, the relative viability (LU99A; first compound 0.005 µM) was 0.43 and the relative viability (LU99A; first compound 0.01581 µM) was 0.443. The relative viability (LU99A; first compound 0.05 µM) was 0.526, the relative viability (LU99A; first compound 0.1581 µM) was 0.358 and the relative viability (LU99A; first compound 0.5 µM) was 0.402. It also gave a relative viability (NCI-H1395; first compound 0.005 µM) of 0.476, a relative viability (NCI-H1395; first compound 0.01581 µM) of 0.747 and a relative viability (NCI-H1395; first compound 0.05 µM) of 0.932. It also gave a relative viability (NCI-H1395; first compound 0.1581 µM) of 0.58, a relative viability (NCI-H1395; first compound 0.5 µM) of 0.424 and a relative viability (NCI-H1651; first compound 0.005 µM) of 0.444. The relative viability (NCI-H1651; first compound 0.01581 µM) was 0.53, the relative viability (NCI-H1651; first compound 0.05 µM) was 0.619 and the relative viability (NCI-H1651; first compound 0.1581 µM) was 0.519. For the same molecule, the relative viability (NCI-H1651; first compound 0.5 µM) was 0.471, the relative viability (NCI-H1793; first compound 0.005 µM) was 0.606 and the relative viability (NCI-H1793; first compound 0.01581 µM) was 0.706. It also gave a relative viability (NCI-H1793; first compound 0.05 µM) of 0.778, a relative viability (NCI-H1793; first compound 0.5 µM) of 0.742 and a relative viability (NCI-H1944; first compound 0.005 µM) of 0.443. The relative viability (NCI-H1944; first compound 0.01581 µM) was 0.59, the relative viability (NCI-H1944; first compound 0.05 µM) was 0.534 and the relative viability (NCI-H1944; first compound 0.1581 µM) was 0.5. It also gave a relative viability (NCI-H1944; first compound 0.5 µM) of 0.609, a relative viability (NCI-H2023; first compound 0.005 µM) of 0.488 and a relative viability (NCI-H2023; first compound 0.01581 µM) of 0.694. The relative viability (NCI-H2023; first compound 0.05 µM) was 0.703, the relative viability (NCI-H2023; first compound 0.1581 µM) was 0.48 and the relative viability (NCI-H2023; first compound 0.5 µM) was 0.441. The relative viability (NCI-H2085; first compound 0.005 µM) was 0.754, the relative viability (NCI-H2085; first compound 0.01581 µM) was 0.796 and the relative viability (NCI-H2085; first compound 0.05 µM) was 0.825. For the same molecule, the relative viability (NCI-H2085; first compound 0.1581 µM) was 0.709, the relative viability (NCI-H2085; first compound 0.5 µM) was 0.786 and the relative viability (NCI-H2087; first compound 0.005 µM) was 0.917. It also gave a relative viability (NCI-H2087; first compound 0.01581 µM) of 0.685, a relative viability (NCI-H2087; first compound 0.05 µM) of 0.663 and a relative viability (NCI-H2087; first compound 0.1581 µM) of 0.698. It also gave a relative viability (NCI-H2087; first compound 0.5 µM) of 0.428, a relative viability (NCI-H2405; first compound 0.005 µM) of 0.376 and a relative viability (NCI-H2405; first compound 0.01581 µM) of 1.03. For the same molecule, the relative viability (NCI-H2405; first compound 0.05 µM) was 1.05, the relative viability (NCI-H2405; first compound 0.1581 µM) was 0.854 and the relative viability (NCI-H2405; first compound 0.5 µM) was 0.788. It also gave a relative viability (NCI-H520; first compound 0.005 µM) of 0.729, a relative viability (NCI-H520; first compound 0.01581 µM) of 0.754 and a relative viability (NCI-H520; first compound 0.05 µM) of 0.691. It also gave a relative viability (NCI-H520; first compound 0.1581 µM) of 0.675, a relative viability (NCI-H520; first compound 0.5 µM) of 0.607 and a relative viability (NCI-H650; first compound 0.005 µM) of 0.348. For the same molecule, the relative viability (NCI-H650; first compound 0.01581 µM) was 0.379, the relative viability (NCI-H650; first compound 0.05 µM) was 0.414 and the relative viability (NCI-H650; first compound 0.1581 µM) was 0.29. For the same molecule, the relative viability (NCI-H650; first compound 0.5 µM) was 0.296, the relative viability (NCI-H838; first compound 0.005 µM) was 0.75 and the relative viability (NCI-H838; first compound 0.01581 µM) was 0.792. It also gave a relative viability (NCI-H838; first compound 0.05 µM) of 0.802, a relative viability (NCI-H838; first compound 0.1581 µM) of 0.746 and a relative viability (NCI-H838; first compound 0.5 µM) of 0.696. For the same molecule, the relative viability (SK-MES-1; first compound 0.005 µM) was 1.03, the relative viability (SK-MES-1; first compound 0.01581 µM) was 1.07 and the relative viability (SK-MES-1; first compound 0.05 µM) was 1.13. The relative viability (SK-MES-1; first compound 0.1581 µM) was 1.07 and the relative viability (SK-MES-1; first compound 0.5 µM) was 0.996.
